Assay results: patent publication US20090281126A1, “Organic Compounds” (Novartis AG, priority 2006, published 2009)
pEC50, pKi: −log10 of the molar value.

Key:
human A3 receptors = target: T1, human A3 receptors (Homo sapiens, UniProt P0DMS8); experiment: A3 binding assay ([125I]-AB-MECA radioligand, CHO membranes); conditions: [125I]-AB-MECA 0.25 nM
T1 construct: expressed in transfected cells; membranes prepared in house
T1 sequence (P0DMS8 1-318): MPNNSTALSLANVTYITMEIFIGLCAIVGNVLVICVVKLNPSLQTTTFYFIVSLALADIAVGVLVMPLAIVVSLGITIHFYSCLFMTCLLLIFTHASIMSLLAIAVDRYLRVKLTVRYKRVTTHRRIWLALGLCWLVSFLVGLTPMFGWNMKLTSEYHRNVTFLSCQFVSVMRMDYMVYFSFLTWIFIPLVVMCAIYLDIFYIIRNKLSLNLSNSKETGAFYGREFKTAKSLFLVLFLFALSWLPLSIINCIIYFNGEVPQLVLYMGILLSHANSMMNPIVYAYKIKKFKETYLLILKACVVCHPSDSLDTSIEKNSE
Description: Compounds in the present invention were tested in an A3 binding assay using the iodinated ligand [^125I]-AB-MECA with membranes prepared from CHO cells stably expressing human A3 receptors.
Radioligand binding to the CHO A3 membranes was performed using radio-labelled agonist [^125I]-AB-MECA at a concentration range of 0.002-5 nM to obtain saturation binding. Binding experiments were performed in duplicate using 2.5 μg membrane in a total volume of 200 μL of assay buffer. The non-specific binding was determined in the presence of 10 μM of the agonist I-AB-MECA.
The assay was performed in a final volume of 200 μL/well, in a U-bottomed polypropylene 96-well plate. […] Total binding was determined using 50 μL vehicle. Non-specific binding was determined using 50 μL of 40 μM I-AB-MECA, to give a final assay concentration of 10 μM. • 50 μL [^125I]-AB-MECA at a concentration of 1 nM (4×), to give a final assay concentration of 0.25 nM. • 100 μL CHO A3 membranes at a concentration of 25 μg/mL in assay buffer containing 4 U/mL adenosine deamin ase (ADA) (final assay concentration of 2 U/mL), to give a final assay concentration of 2.5 μg/well.
Compound dilution were prepared on a Biomek 2000 to give a series of 10 concentrations from 40-0.002 μM (4×). […] Total binding was determined in the absence of I-AB-MECA and non specific binding in the presence of 10 μM I-AB-MECA. […]

adenosine A3 receptors = target: T2, adenosine A3 receptors (Homo sapiens, UniProt P0DMS8); experiment: A3 [35S]-GTPGammaS binding functional assay (SPA, CHO membranes); assay type: biochemical; conditions: agonist stimulation of [35S]-GTPγS binding
T2 construct: expressed in transfected cells; membranes prepared in house
T2 sequence (P0DMS8 1-318): T1 sequence (P0DMS8 1-318)
Description: To establish the functional response to compounds of this invention an assay was carried out measuring A3 agonist stimulation of [^35S]-GTPγS binding in membranes prepared from CHO cells stably expressing adenosine A3 receptors. The agonist-induced stimulation of binding of [^35S]-GTPγS to activated G proteins has been used as a functional assay for a variety of receptors, including adenosine receptors. See Lorenzen et al., Mol Pharmacol, Vol. 49, pp. 915-926 (1996); and Jacobson et al., Drug Dev Res Vol. 37, p. 131 (1996).
The conventional GTPγS binding assay described by Lorenzen et al (1996), supra, is a filtration based method and thus requires a separation step; we have modified this method to run as a SPA format so that it can be used in a semi-automated and homogenous formal. In the SPA assay membranes are captured by wheatgerm agglutinin (WGA) SPA beads, through a specific interaction between WGA and carbohydrate residues of glycoproteins on the surfaces for the membranes. Upon receptor stimulation, [^35S]-GTPγS binds specifically to the alpha subunit of the G-protein thus bringing the [^35S]-GTPγS into close proximity with the SPA beads. Emitted β particles from the [^35S]-GTPγS excite the scintillant in the beads and produce light.
The assay was performed in a final volume of 250 μL/well in a white non-binding surface 96-well Optiplate. […]

[1] = as described in WO 95/02604, cited from earlier work

| Compound | pKi (human A3 receptors) | pEC50 (adenosine A3 receptors) | increase in basal or systemic blood pressure ([1]; administration of IB-MECA) | basal or systemic blood pressure after administration ([1]; from about 70 mmHg) |
| --- | --- | --- | --- | --- |
| CC(=O)N[C@H]1C[C@@H](n2cnc3c(NCc4cccc(I)c4)nc(Cl)nc32)[C@H](O)[C@@H]1O [Example 1, N-{(1S,2R,3S,4R)-4-[2-Chloro-6-(3-iodobenzylamino)-purin-9-yl]-2,3-dihydroxycyclopentyl}-acetamide] | 9.04 | 7.96 |  |  |
| CNC(=O)[C@H]1O[C@@H](n2cnc3c(NCc4cccc(I)c4)ncnc32)[C@H](O)[C@@H]1O [IB-MECA] |  |  | 10 to 30% | about 90 mmHg |
